The text below walks through data of US8969375B2, “CDK9 kinase inhibitors” (AbbVie Inc., priority 2013, dated 2015).

Assay [1] concerns the target T1, CDK9/Cyclin T1 (Homo sapiens, UniProt P50750).
T1 construct: purchased Carna Biosciences 04-110
The assay can be described thus: CDK9 enzyme activity, LANCE ULight TR-FRET kinase assay. It counts as biochemical. The conditions noted are these: 1000 μM ATP, 4 nM CDK9/Cyclin T1, 30 minutes. As to the method:
CDK9 enzyme activities were measured using LANCE ULight TR-FRET kinase assay reagents (PerkinElmer, Waltham, Mass.). Compounds were directly added in 100% DMSO to white low volume assay plates (Perkin Elmer Proxiplate 6008289) using a Labcyte Echo acoustic dispenser. Assay reagents in serine/threonine kinase assay buffer containing 20 mM HEPES, 10 mM MgCl2, 100 mM Na3VO4, and 0.0075% Triton X-100. were added for final reaction mixture concentrations of 1000 μM ATP, 100 nM U-light MBP peptide (Perkin Elmer TRF0109M) and reaction initiated with 4 nM CDK9/Cyclin T1 (Carna Biosciences 04-110). The kinase reaction was carried out for 30 minutes before addition of stopping buffer to a final of 20 mM EDTA and 0.5 nM of LANCE Ultra Europium anti-phospho-MBP antibody (PerkinElmer TRF0201M) in LANCE detection buffer (PerkinElmer CR97-100). The reaction was equilibrated for 1 hour and the signal read in the Perkin Elmer Envision in TR-FRET mode (excitation at 320 nm and emission at 615/665 nm).
(In general: TR-FRET usually uses a lanthanide donor and a delayed reading to cut background.)

In assay [2] the test system is H929 cells. Put plainly: Cell viability assay (Cell TiterGlo), H929 cells. It is filed as cell-based, human. The following applies: Homo sapiens, NCI-H929, 24 hours. As to the method: Cell viability assays were performed using A431 or H929 cells. A431 cells were seeded in 96-well plates at 10,000 cells/well, and after overnight incubation, treated with compounds at 2-times the final concentration to result in a dose response of 3-fold dilutions from 10 μM to 0.0005 μM (50 μL/well, 0.1% final DMSO concentration). H929 cells were seeded in 96-well plates at 10,000 cells/well and treated immediately with compounds as described above. After 24 hours at 37° C., cell viability was measured using Cell TiterGlo reagent (Promega) with a luminescence reader. Alternately, cell viability assays were performed in 384-well format. A431 cells were seeded in 384-well plates at 2500 cells/well and, after overnight incubation, treated with compounds in a dose response of 3-fold dilutions from 10 μM to 0.0005 μM ([…], 0.1% final DMSO concentration). For the H929 viability assay, […] of the compounds was dispensed into 384-well plates in a dose response as described above and cells were immediately seeded in 384-well plates at 2500 cells/well. After 24 hours at […], cell viability was measured using Cell TiterGlo reagent (Promega) with a luminescence reader.

T1 sequence (P50750 whole entry): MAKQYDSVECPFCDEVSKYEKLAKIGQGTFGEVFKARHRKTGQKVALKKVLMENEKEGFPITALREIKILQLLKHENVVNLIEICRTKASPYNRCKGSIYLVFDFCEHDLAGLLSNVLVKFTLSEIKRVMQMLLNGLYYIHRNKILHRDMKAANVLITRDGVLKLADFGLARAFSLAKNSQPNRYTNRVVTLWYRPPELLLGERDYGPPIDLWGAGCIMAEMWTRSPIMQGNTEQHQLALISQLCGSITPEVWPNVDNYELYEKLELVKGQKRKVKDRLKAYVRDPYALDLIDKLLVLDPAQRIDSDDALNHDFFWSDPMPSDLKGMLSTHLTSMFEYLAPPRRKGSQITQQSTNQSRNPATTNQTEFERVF
T1 sequence (O60563 whole entry partner): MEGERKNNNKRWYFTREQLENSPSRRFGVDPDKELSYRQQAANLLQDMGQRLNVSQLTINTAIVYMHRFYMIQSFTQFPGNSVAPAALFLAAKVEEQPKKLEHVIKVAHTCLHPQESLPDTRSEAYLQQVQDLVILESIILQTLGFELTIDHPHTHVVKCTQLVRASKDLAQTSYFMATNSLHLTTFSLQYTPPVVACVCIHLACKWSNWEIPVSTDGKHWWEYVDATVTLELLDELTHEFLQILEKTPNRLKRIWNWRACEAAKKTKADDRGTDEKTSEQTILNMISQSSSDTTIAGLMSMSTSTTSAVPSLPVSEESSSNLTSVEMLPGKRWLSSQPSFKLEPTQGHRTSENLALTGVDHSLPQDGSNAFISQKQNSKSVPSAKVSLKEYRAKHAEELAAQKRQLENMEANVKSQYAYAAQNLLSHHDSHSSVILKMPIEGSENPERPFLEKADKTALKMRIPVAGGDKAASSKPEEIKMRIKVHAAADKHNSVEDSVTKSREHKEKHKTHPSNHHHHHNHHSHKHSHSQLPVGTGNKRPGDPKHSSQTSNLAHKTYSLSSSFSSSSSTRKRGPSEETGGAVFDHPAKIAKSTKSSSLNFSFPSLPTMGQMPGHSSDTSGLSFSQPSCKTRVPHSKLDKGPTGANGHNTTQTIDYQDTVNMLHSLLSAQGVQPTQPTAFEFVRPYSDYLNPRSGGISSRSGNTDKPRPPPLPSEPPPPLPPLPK

As a reminder, the IC50 is the concentration that inhibits the measured activity by half. The EC50 is the concentration giving half of the maximal effect. A higher EC50 goes with lower potency in that assay. Compound `CS(=O)(=O)N1CCC(c2cc3c(-c4ccc5ncn(CC6CCOCC6)c5c4)ccnc3[nH]2)CC1` [Example 6, 6-{2-[1-(methylsulfonyl)piperidin-4-yl]-1H-pyrrolo[2,3-b]pyridin-4-yl}-1-(tetrahydro-2H-pyran-4-ylmethyl)-1H-benzimidazole] came in with an IC50 in assay [1] of 0.038 µM. In assay [2], this compound registered an EC50 of 0.13 µM.

Compound `c1cc(-c2ccc3ncn(CC4CCOCC4)c3n2)c2cc(C3CCNCC3)[nH]c2n1` [Example 7, 5-[2-(piperidin-4-yl)-1H-pyrrolo[2,3-b]pyridin-4-yl]-3-(tetrahydro-2H-pyran-4-ylmethyl)-3H-imidazo[4,5-b]pyridine] displayed an IC50 in assay [1] of 0.069 µM. For the same compound, in assay [2], a half-maximal effect (EC50) was put at 0.5 µM.

As to `CS(=O)(=O)N1CCC(c2cc3c(-c4ccc5c(C#N)cn(Cc6cccc(F)c6)c5c4)ccnc3[nH]2)CC1` [Example 11, 1-(3-fluorobenzyl)-6-{2-[1-(methylsulfonyl)piperidin-4-yl]-1H-pyrrolo[2,3-b]pyridin-4-yl}-1H-indole-3-carbonitrile], in assay [1], it took 0.11 µM to reach half-maximal inhibition (IC50). The compound also yielded an EC50 in assay [2] of 0.178 µM.

As to `CNC(=O)N1CCC(c2cc3c(-c4ccc5ncn(Cc6cncc(F)c6)c5c4)ccnc3[nH]2)CC1` [Example 16, 4-(4-{1-[(5-fluoropyridin-3-yl)methyl]-1H-benzimidazol-6-yl}-1H-pyrrolo[2,3-b]pyridin-2-yl)-N-methylpiperidine-1-carboxamide], the IC50 in assay [1] came to 0.094 µM. Also, a half-maximal effect in assay [2] (EC50) was put at 0.18 µM.

In turn, `OCC(O)CN1CCC(c2cc3c(-c4ccc5ncn(Cc6cncc(F)c6)c5c4)ccnc3[nH]2)CC1` (stereo not drawn) [Example 17, 3-[4-(4-{1-[(5-fluoropyridin-3-yl)methyl]-1H-benzimidazol-6-yl}-1H-pyrrolo[2,3-b]pyridin-2-yl)piperidin-1-yl]propane-1,2-diol] gave an IC50 in assay [1] of 0.066 µM. In addition, in assay [2], the EC50 came to 0.12 µM.

With `Fc1cc2ncn(CC3CCOCC3)c2cc1-c1ccnc2[nH]c(C3CCNCC3)cc12` [Example 18, 5-fluoro-6-[2-(piperidin-4-yl)-1H-pyrrolo[2,3-b]pyridin-4-yl]-1-(tetrahydro-2H-pyran-4-ylmethyl)-1H-benzimidazole], half-maximal inhibition in assay [1] (IC50) was put at 0.12 µM. For the same compound, in assay [2], the response was half-maximal at 0.858 µM (EC50).

With `OCC(O)CN1CCC(c2cc3c(-c4cc5c(cc4F)ncn5CC4CCOCC4)ccnc3[nH]2)CC1` (stereo not drawn) [Example 19, 3-(4-{4-[5-fluoro-1-(tetrahydro-2H-pyran-4-ylmethyl)-1H-benzimidazol-6-yl}-1H-pyrrolo[2,3-b]pyridin-2-yl]piperidin-1-yl)propane-1,2-diol], inhibition in assay [1] was half-maximal at 0.097 µM (IC50). In assay [2], this compound registered an EC50 of 1.11 µM.

Take `CNC(=O)N1CCC(c2cc3c(-c4cc5c(cc4F)ncn5CC4CCOCC4)ccnc3[nH]2)CC1` [Example 20, 4-{4-[5-fluoro-1-(tetrahydro-2H-pyran-4-ylmethyl)-1H-benzimidazol-6-yl]-1H-pyrrolo[2,3-b]pyridin-2-yl}-N-methylpiperidine-1-carboxamide]: it took 0.16 µM to reach half-maximal inhibition in assay [1] (IC50). The compound also returned an EC50 in assay [2] of 1.97 µM.

`O=C(CO)N1CCC(c2cc3c(-c4cc5c(cc4F)ncn5CC4CCOCC4)ccnc3[nH]2)CC1` [Example 21, 1-(4-{4-[5-fluoro-1-(tetrahydro-2H-pyran-4-ylmethyl)-1H-benzimidazol-6-yl}-1H-pyrrolo[2,3-b]pyridin-2-yl]piperidin-1-yl)-2-hydroxyethanone] gave an IC50 in assay [1] of 0.1 µM. In assay [2], this compound came in with an EC50 of 1.85 µM.

In the case of `N#Cc1cn(Cc2ccccc2)c2cc(-c3ncnc4[nH]c(C5=CCNCC5)cc34)ccc12` [Example 22, 1-benzyl-6-[6-(1,2,3,6-tetrahydropyridin-4-yl)-7H-pyrrolo[2,3-d]pyrimidin-4-yl]-1H-indole-3-carbonitrile], the IC50 in assay [1] was 0.016 µM. This compound also had a half-maximal effective concentration (EC50) in assay [2] of 0.1 µM.

The compound `CS(=O)(=O)N1CCC(c2cc3c(-c4cc5c(cc4F)ncn5CC4CCOCC4)ccnc3[nH]2)CC1` [Example 23, 5-fluoro-6-{2-[1-(methylsulfonyl)piperidin-4-yl]-1H-pyrrolo[2,3-b]pyridin-4-yl}-1-(tetrahydro-2H-pyran-4-ylmethyl)-1H-benzimidazole] came in with an IC50 in assay [1] of 0.055 µM. This compound also displayed an EC50 in assay [2] of 0.55 µM.

Take `Clc1cc2ncn(CC3CCOCC3)c2cc1-c1ccnc2[nH]c(C3CCNCC3)cc12` [Example 27, 5-chloro-6-[2-(piperidin-4-yl)-1H-pyrrolo[2,3-b]pyridin-4-yl]-1-(tetrahydro-2H-pyran-4-ylmethyl)-1H-benzimidazole]: in assay [1], it took 0.053 µM to reach half-maximal inhibition (IC50). The compound also had an EC50 in assay [2] of 7 µM.

With `N#Cc1cn(CC2CCOCC2)c2cc(-c3ccnc4[nH]c(C5CCNCC5)cc34)cnc12` [Example 28, 6-[2-(piperidin-4-yl)-1H-pyrrolo[2,3-b]pyridin-4-yl]-1-(tetrahydro-2H-pyran-4-ylmethyl)-1H-pyrrolo[3,2-b]pyridine-3-carbonitrile], in assay [1], it took 0.18 µM to reach half-maximal inhibition (IC50). In assay [2], this compound came in with an EC50 above 10 µM.

On to `c1cc(-c2cnc3ccn(CC4CCOCC4)c3c2)c2cc(C3CCNCC3)[nH]c2n1` [Example 30, 6-{2-(piperidin-4-yl)-1H-pyrrolo[2,3-b]pyridin-4-yl}-1-(tetrahydro-2H-pyran-4-ylmethyl)-1H-pyrrolo[3,2-b]pyridine], for which half-maximal inhibition in assay [1] (IC50) required 0.085 µM. Further, the EC50 in assay [2] came out at 6.3 µM.

`N#Cc1cn(Cc2ccccc2)c2cc(-c3ncnc4[nH]c(C5=CCN(CC(O)CO)CC5)cc34)ccc12` (stereo not drawn) [Example 31, 1-benzyl-6-{6-[1-(2,3-dihydroxypropyl)-1,2,3,6-tetrahydropyridin-4-yl]-7H-pyrrolo[2,3-d]pyrimidin-4-yl}-1H-indole-3-carbonitrile]: half-maximal inhibition in assay [1] (IC50) was put at 0.03 µM.

`Fc1cccc(CCn2nnc3ccc(-c4ccnc5[nH]c(C6CCNCC6)cc45)cc32)c1` [Example 32, 1-[2-(3-fluorophenyl)ethyl]-6-{2-(piperidin-4-yl)-1H-pyrrolo[2,3-b]pyridin-4-yl}-1H-benzotriazole] showed an IC50 in assay [1] of 0.051 µM. Moreover, the EC50 in assay [2] came to 0.89 µM.

`Fc1cccc(CCn2nnc3ccc(-c4ccnc5[nH]c(C6CCNCC6)c(Cl)c45)cc32)c1` [Example 33, 6-[3-chloro-2-(piperidin-4-yl)-1H-pyrrolo[2,3-b]pyridin-4-yl]-1-[2-(3-fluorophenyl)ethyl]-1H-benzotriazole] displayed an IC50 in assay [1] of 0.018 µM. This compound gave an EC50 in assay [2] of 1.1 µM.

In assay [1], `CS(=O)(=O)N1CCC(c2cc3c(-c4cnc5ccn(Cc6cccc(F)c6)c5c4)ccnc3[nH]2)CC1` [Example 34, 1-(3-fluorobenzyl)-6-{2-[1-(methylsulfonyl)piperidin-4-yl]-1H-pyrrolo[2,3-b]pyridin-4-yl}-1H-pyrrolo[3,2-b]pyridine] registered an IC50 of 0.017 µM. In assay [2], this compound yielded an EC50 of 0.13 µM.

Turning to `N#Cc1cn(Cc2cccc(F)c2)c2nc(-c3ccnc4[nH]c(C5CCNCC5)cc34)ccc12` [Example 35, 1′-(3-fluorobenzyl)-2-(piperidin-4-yl)-1H,1′H-4,6′-bipyrrolo[2,3-b]pyridine-3′-carbonitrile], half-maximal inhibition in assay [1] (IC50) required 0.013 µM. The same compound displayed an EC50 in assay [2] of 0.2 µM.

In assay [1], `C1=C(c2cc3c(-c4ccc5nnn(CC6CCOCC6)c5c4)ccnc3[nH]2)CCNC1` [Example 36, 1-(tetrahydro-2H-pyran-4-ylmethyl)-6-[2-(1,2,3,6-tetrahydropyridin-4-yl)-1H-pyrrolo[2,3-b]pyridin-4-yl]-1H-benzotriazole] returned an IC50 of 0.059 µM. The same compound displayed an EC50 in assay [2] of 0.45 µM.

Compound `Fc1cncc(Cn2ccc3ncc(-c4ccnc5[nH]c(C6CCNCC6)cc45)cc32)c1` [Example 37, 1-[(5-fluoropyridin-3-yl)methyl]-6-[2-(piperidin-4-yl)-1H-pyrrolo[2,3-b]pyridin-4-yl]-1H-pyrrolo[3,2-b]pyridine] registered an IC50 in assay [1] of 0.026 µM. The midpoint of the response in assay [2], the EC50, lay at 0.17 µM.

On to `O=C(CO)N1CC=C(c2cc3c(-c4ccc5nnn(CC6CCOCC6)c5c4)ccnc3[nH]2)CC1` [Example 38, 2-hydroxy-1-[4-{4-[1-(tetrahydro-2H-pyran-4-ylmethyl)-1H-benzotriazol-6-yl}-1H-pyrrolo[2,3-b]pyridin-2-yl]-3,6-dihydropyridin-1(2H)-yl]ethanone], for which, in assay [1], the IC50 amounted to 0.062 µM. Moreover, the EC50 in assay [2] came to 0.44 µM.

As to `CS(=O)(=O)N1CC=C(c2cc3c(-c4ccc5nnn(CC6CCOCC6)c5c4)ccnc3[nH]2)CC1` [Example 39, 6-{2-[1-(methylsulfonyl)-1,2,3,6-tetrahydropyridin-4-yl]-1H-pyrrolo[2,3-b]pyridin-4-yl}-1-(tetrahydro-2H-pyran-4-ylmethyl)-1H-benzotriazole], half-maximal inhibition in assay [1] (IC50) required 0.074 µM. The response in assay [2] was half-maximal at 0.2 µM (EC50).
